Experimental data taken from patent publication US9814711B2, “Antitubercular composition comprising rifampicin, isoniazid, ethambutol and pyrazinamide and its process of preparation” (priority 2013, dated 2017).
Structures can show the parent of a compound that is named as a salt.

Assays:
[1] = Stability: active ingredient content of coated tablets, initial and after aging at 40° C. and 75% relative humidity; assay type: physicochemical
[2] = Dissolution time test (pH 6.8 phosphate buffer, 900 mL, paddle 100 rpm, HPLC); assay type: physicochemical; conditions: for % of dissolved actives at 45 min after beginning the Dissolution time test: pH 6.8 phosphate buffer 900 mL paddle 100 rpm
Protocol: The dissolution time of the actives can be measured by introducing one tablet (weight 1090 mg) in 900 mL of water at 37° C. buffered to pH 6.8 with a phosphate buffer wherein the medium is mixed with a paddle at 100 rpm. The phosphate buffer is prepared by dissolving 7 g of anhydrous dibasic sodium phosphate in 5 L of water, and adjusting with phosphoric acid to a pH of 6.8. The percentage of the actives dissolved at a given time can be measured by high performance liquid chromatography (HPLC).

[3] = coated tablet of Example 1, aging 1 month at 40° C. and 75% relative humidity
[4] = coated tablet of Example 1, aging 2 months at 40° C. and 75% relative humidity
[5] = coated tablet of Example 1, initial
[6] = coated tablet of Example 1, aged 1 month at 40° C. and 75% relative humidity
[7] = coated tablet of Example 1, aged 2 months at 40° C. and 75% relative humidity

| SMILES | percentage of active ingredient measured relative to the target quantity [1, 3] [%] | percentage of active ingredient measured relative to the target quantity [1, 4] [%] | percentage of active ingredient measured relative to the target quantity [1, 5] [%] | % of dissolved actives at 45 min after beginning the Dissolution time test [2, 6] [%] | % of dissolved actives at 45 min after beginning the Dissolution time test [2, 7] [%] | % of dissolved actives at 45 min after beginning the Dissolution time test [2, 5] [%] | cumulative percentage of active released ([2]; tablet of Example 1, 5 min) | cumulative percentage of active released ([2]; tablet of Example 1, 10 min) | cumulative percentage of active released ([2]; tablet of Example 1, 15 min) | cumulative percentage of active released ([2]; tablet of Example 1, 20 min) | cumulative percentage of active released ([2]; tablet of Example 1, 30 min) | cumulative percentage of active released ([2]; tablet of Example 1, 45 min) | cumulative percentage of active released ([2]; tablet of Example 1, 60 min) |
| --- | --- | --- | --- | --- | --- | --- | --- | --- | --- | --- | --- | --- | --- |
| CC[C@@H](CO)NCCN[C@@H](CC)CO [Ethambutol HCl, Ethambutol Hydrochloride] | 100.3 | 101.4 | 100.6 | 100 | 99 | 100 | 84 | 99 | 99 | 99 | 99 | 99 | 99 |
| NNC(=O)c1ccncc1 [Isoniazid] | 97.8 | 98.20 | 100.0 | 98 | 100 | 98 | 86 | 99 | 100 | 100 | 100 | 100 | 100 |
| NC(=O)c1cnccn1 [Pyrazinamide] | 101.2 | 100.5 | 101.3 | 102 | 102 | 102 | 90 | 101 | 102 | 102 | 102 | 102 | 102 |
